US5925631A, “Alkylated styrenes as prodrugs to COX-2 inhibitors” (Merck & Co., Inc., priority 1998, dated 1999)

Test system: Rat Paw Edema
Test: Rat paw edema assay (carrageenan)
Format: in vivo, rat (Male Sprague-Dawley)
Conditions: po, p.o. 1 h before subplantar carrageenan (500 μg per paw), paw volume at 3 h, read-out: Rat Paw Edema ED50, dose of prodrug required to reduce edema formation by 50% as compared to vehicle control
Method: Male Sprague-Dawley rats (150-200 g) are fasted overnight and are given, p0, either vehicle (1% methocel or 5% Tween 80) or a test compound. One hr later, a line is drawn using a permanent marker at the level above the ankle in one hind paw to define the area of the paw to be monitored. The paw volume (V0) is measured using a plethysmometer (Ugo-Basile, Italy) based on the principle of water displacement. The animals are then injected subplantarly with 50 μl of 1% carrageenan solution in saline (FMC Corp, Me.) into the paw using an insulin syringe with a 25-gauge needle (i.e. 500 μg carrageenan per paw). Three hr later, the paw volume (V3) is measured and the increases in paw volume (V3 - VO) are calculated. The animals are sacrificed by CO2 asphyxiation and the absence or presence of stomach lesions scored. Data is compared with the vehicle-control values and percent inhibition calculated. All treatment groups are coded to eliminate observer bias.
Compounds of the present invention are prodrugs of inhibitors of COX-2 and are thereby useful in the treatment of COX-2 mediated diseases as enumerated above. The extent of conversion of these compounds to the active COX-2 inhibitors may be seen in the representative results shown in Table III along with their antiinflammatory activity. The plasma levels indicated are the maximum rat plasma concentrations of the active COX-2 inhibitor observed when the rat was treated with a 20 mg/kg oral dose of the indicated prodrug. The ED50 values in the rat paw edema assay represent the dose of prodrug required to reduce edema formation by 50% as compared to the vehicle control.

Structure (SMILES) | ED50 [mg/kg]
CC(C)(O)/C(=C(\CO)c1cccc(F)c1)c1ccc(S(C)(=O)=O)cc1 [Example 1, 2-(3-Fluorophenyl)-4-methyl-3-(4-(methylsulfonyl)-phenyl)-2-(Z)-penten-1,4-diol] | 10
COC(C)(C)/C(=C(\C(=O)N(C)C)c1cccc(F)c1)c1ccc(S(C)(=O)=O)cc1 [Example 4, N,N-Dimethyl-2-(3-fluorophenyl)-4-methoxy-4-methyl-3-(4-(methylsulfonyl)phenyl)-2-(Z)-pentenamide] | 1.6
COC(=O)/C(=C(/c1ccc(S(C)(=O)=O)cc1)C(C)(C)OC)c1cccc(F)c1 [Example 6, Methyl 2-(3-fluorophenyl)-4-methoxy-4-methyl-3-(4-(methylsulfonyl)phenyl)-2-(Z)-pentenoate] | 2.1
